Assay results published in patent US9750249B2, “Synergistic paraffinic oil and boscalid fungicides” (priority 2010, dated 2017).

Tested on: dollar spot
Assay: Field trial: dollar spot counts on putting-green plots
Format: in vivo, Sclerotinia homoeocarpa
Conditions: Table 2a; combination even with half the recommended application rate of boscalid
Source text: Studies were established in a completely randomized design with three replications. The treatments included an untreated (fertilizer only) treatment and twenty-three rate/interval combinations of Civitas™ and Emerald™. The label-recommended rates of Civitas™ application to control dollar spot on turfgrass are 8-32 oz/1000 sq.ft. The label-recommended rate of Emerald™ application to control dollar spot on turfgrass is 0.13 oz/1000 sq.ft.
Initial treatments were made on June 16 and continued for 15 weeks (final treatments were made on September 27). […]
Precipitation was such that supplemental irrigation was not required on a regular basis. […] Treatment differences at individual measurement events were evaluated using analysis of variance and Fisher's protected least significant difference (LSD). […]
Applying the approach to identifying synergy as set out in S. R. Colby, “Calculating synergistic and antagonistic responses of herbicide combinations”, Weeds 15, 20-22 (1967), expected efficacy, E, may be expressed as: E=X+Y(100−X)/100, where X is the efficacy, expressed in % of the untreated control, of the first composition (boscalid), and Y is the efficacy, expressed in % of the untreated control, of the second composition (Civitas).

Structure (SMILES): O=C(Nc1ccccc1-c1ccc(Cl)cc1)c1cccnc1Cl [boscalid, 2-chloro-N-(4′-chloro[1,1′-biphenyl]-2-yl)-nicotinamide]
- sustained elimination of dollar spot: neither boscalid alone nor CIVITAS alone are capable of sustained elimination of dollar spot
